The values that follow come from ChEMBL document CHEMBL1201862, “PubChem BioAssay data set” (2004).

Each structure is given as a SMILES string.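 Exposure lasted 48 hours, with cells grown in 96-well plates and compounds tested at five concentrations. GI50 = concentration required for 50% inhibition of growth.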 Activity calls are given as the source filed them. Rule as the data show it: active = GI50 up to about 1.1 µM and inactive = higher.

Among the test systems are U-251; NCI/ADR-RES; OVCAR-8; IGROV-1; NCI-H226; ACHN; DU-145; SNB-19; NCI-H460; MCF7; PC-3; SK-OV-3; HL-60; SF-268; A549; K562; Hs-578T; Malme-3M; A498; SR.
What all share (assay): NCI-60 cell line screen, 48 h

As for `C/C(=C\COP(=O)(O)CP(=O)(O)O)CC/C=C(\C)CNc1ccccc1`, the GI50 in the assay on U-251, with NCI/ADR-RES, in the assay on OVCAR-8, in the assay with IGROV-1, in the assay with NCI-H226 and in the assay with ACHN was > 100 µM (inactive) throughout. The GI50 with DU-145, with SNB-19, in the assay on NCI-H460, with MCF7, in the assay on PC-3 and in the assay on SK-OV-3 was > 100 µM (inactive) each time. The GI50 with HL-60, with SF-268, in the assay on A549, with K562 and in the assay on Hs-578T was > 100 µM (inactive) throughout.

For `O=C1c2cccc3cc([N+](=O)[O-])cc(c23)C(=O)N1CCCN1CCN(CCCNc2ccc3ncn4c5ccccc5c(=O)c2c34)CC1`, the GI50 with U-251, with Malme-3M, with NCI/ADR-RES, in the assay on OVCAR-8, in the assay with A498 and with IGROV-1 was < 0.005 µM (active) throughout. The GI50 in the assay with NCI-H226, in the assay on ACHN, in the assay on DU-145, with SNB-19, in the assay with NCI-H460 and in the assay with MCF7 was < 0.005 µM (active) each time. For the same compound, the GI50 with PC-3 was < 0.005 µM (active); with SK-OV-3, 0.0198 µM (active); in the assay with HL-60, < 0.005 µM (active); with SF-268, < 0.005 µM (active); with A549 it was < 0.005 µM (active); in the assay on Hs-578T it was < 0.005 µM (active).

`COc1ccc(-c2nc(N(C)C)c3ccccc3n2)cc1`: the GI50 in the assay with U-251 was 20.5 µM (inactive); in the assay with Malme-3M, 16.8 µM (inactive); in the assay on NCI/ADR-RES, 5.09 µM (inactive); with OVCAR-8, 11.3 µM (inactive); in the assay with IGROV-1, 9.55 µM (inactive); in the assay on NCI-H226, 3.31 µM (inactive). Further, the GI50 is 10.8 µM (inactive) in the assay on SR; 7.64 µM (inactive) with ACHN; 17.7 µM (inactive) with SNB-19; 10.8 µM (inactive) with NCI-H460; 11 µM (inactive) in the assay on MCF7; 24 µM (inactive) in the assay with PC-3. Further, the GI50 in the assay on SK-OV-3 is 15.8 µM (inactive); in the assay with HL-60, 12.4 µM (inactive); with SF-268, 15.9 µM (inactive); in the assay on A549, 6.1 µM (inactive); in the assay with K562, 13.9 µM (inactive); with Hs-578T it was 13.5 µM (inactive).

In the case of `OC1(C(F)(F)F)OCCN=C1C(F)(F)F` (stereo unspecified), the GI50 in the assay on U-251 was > 100 µM (inactive); with Malme-3M, 24.8 µM (inactive); in the assay with NCI/ADR-RES, 88.3 µM (inactive); with OVCAR-8 it was 53.5 µM (inactive); in the assay with A498, > 100 µM (inactive); in the assay with IGROV-1 it was 99.3 µM (inactive). The GI50 in the assay with NCI-H226 is > 100 µM (inactive); with ACHN, > 100 µM (inactive); with DU-145, 41.1 µM (inactive); with SNB-19, > 100 µM (inactive); in the assay with NCI-H460, > 100 µM (inactive); in the assay with MCF7 it was > 100 µM (inactive). For the same compound, the GI50 is > 100 µM (inactive) in the assay with PC-3; > 100 µM (inactive) in the assay on SK-OV-3; 37.7 µM (inactive) with HL-60; 53.8 µM (inactive) in the assay with SF-268; > 100 µM (inactive) in the assay with A549; > 100 µM (inactive) in the assay on K562. Also, the GI50 in the assay on Hs-578T was 17.2 µM (inactive).

Turning to `Cc1cccc(C(C)C)c1NC(=O)C(=O)CC(=O)c1sc(Nc2ccccc2Cl)nc1C`, the GI50 with U-251 was 23.1 µM (inactive); in the assay with Malme-3M it was > 100 µM (inactive); in the assay on A498 it was > 100 µM (inactive); in the assay with IGROV-1 it was 46.3 µM (inactive); with SR, 18.2 µM (inactive); in the assay on ACHN it was 51.4 µM (inactive). For the same compound, the GI50 was 71.4 µM (inactive) in the assay with DU-145; 56.4 µM (inactive) in the assay with SNB-19; 22.1 µM (inactive) in the assay with NCI-H460; 10.3 µM (inactive) with MCF7; 22.4 µM (inactive) in the assay on PC-3; 20.7 µM (inactive) with SK-OV-3. The GI50 in the assay on HL-60 was 16.1 µM (inactive); with SF-268, 58.2 µM (inactive); in the assay on A549, 31.4 µM (inactive); with K562, > 10 µM (inactive); with Hs-578T, 21.9 µM (inactive).

Take `Oc1cccc(-c2cc(=S)ss2)c1`: the GI50 in the assay with U-251 is 14.8 µM (inactive); in the assay on Malme-3M it was 17.6 µM (inactive); with NCI/ADR-RES, 17.5 µM (inactive); in the assay on OVCAR-8 it was 17.7 µM (inactive); in the assay with IGROV-1 it was 14.4 µM (inactive); with NCI-H226, 18 µM (inactive). The GI50 is 2.76 µM (inactive) in the assay with SR; 15.7 µM (inactive) in the assay with ACHN; 19.7 µM (inactive) in the assay with SNB-19; 17.1 µM (inactive) in the assay on NCI-H460; 12.8 µM (inactive) in the assay with MCF7; 14.4 µM (inactive) in the assay on PC-3. Also, the GI50 in the assay with SK-OV-3 was 20 µM (inactive); in the assay with HL-60, 15 µM (inactive); in the assay on SF-268, 16.9 µM (inactive); with A549 it was 18.5 µM (inactive); with K562, 8.57 µM (inactive); in the assay with Hs-578T, 16.3 µM (inactive).

Regarding `CCCC(=O)OCC1OC(n2cc(F)c(=O)[nH]c2=O)C(F)C1O` (stereo unspecified), the GI50 was 10.8 µM (inactive) in the assay with U-251; > 80 µM (inactive) in the assay with Malme-3M; 53.3 µM (inactive) in the assay on NCI/ADR-RES; > 38.5 µM (inactive) in the assay with OVCAR-8; 8.39 µM (inactive) in the assay with A498; > 76.7 µM (inactive) in the assay on IGROV-1. In addition, the GI50 with NCI-H226 was 99.3 µM (inactive); in the assay with ACHN, 10.9 µM (inactive); in the assay on DU-145, 5.5 µM (inactive); with SNB-19, 78.5 µM (inactive); in the assay with NCI-H460, 2.86 µM (inactive); in the assay on MCF7, 0.456 µM (active). Besides, the GI50 is > 100 µM (inactive) in the assay on PC-3; > 74 µM (inactive) with SK-OV-3; > 100 µM (inactive) with HL-60; > 26.4 µM (inactive) in the assay with SF-268; 5.85 µM (inactive) in the assay on A549; 6.35 µM (inactive) in the assay on K562. Further, the GI50 in the assay with Hs-578T is 99.3 µM (inactive).

Regarding `Cc1ccc(S(=O)(=O)Nn2c(O)c(C#N)c(-c3ccc(Cl)cc3)c(C#N)c2=O)cc1`, the GI50 in the assay on U-251, in the assay with Malme-3M, in the assay on NCI/ADR-RES, in the assay on OVCAR-8, in the assay with A498 and in the assay with IGROV-1 was > 100 µM (inactive) in each case. Also, the GI50 with NCI-H226, with ACHN, with SNB-19, in the assay with NCI-H460, in the assay on MCF7 and in the assay on PC-3 was > 100 µM (inactive) each time. Moreover, the GI50 was > 100 µM (inactive) in the assay with SK-OV-3; > 100 µM (inactive) with HL-60; > 100 µM (inactive) with SF-268; > 100 µM (inactive) with A549; > 100 µM (inactive) in the assay with K562; 74.3 µM (inactive) in the assay with Hs-578T.

Take `Cc1cc(N(CCC#N)CCC#N)ccc1/C=C(\NC(=O)/C=C/c1ccccc1)C(=O)Nc1ccc(Cl)cc1`: the GI50 with U-251 is > 7.53 µM (inactive); with Malme-3M, 14.2 µM (inactive); in the assay with NCI/ADR-RES it was > 100 µM (inactive); with OVCAR-8, > 100 µM (inactive); in the assay on A498 it was > 100 µM (inactive); with IGROV-1, 7.62 µM (inactive). For the same compound, the GI50 in the assay with NCI-H226 was > 69 µM (inactive); in the assay with ACHN, 1.83 µM (inactive); in the assay on DU-145, > 100 µM (inactive); in the assay on SNB-19, > 100 µM (inactive); in the assay with NCI-H460 it was 52.4 µM (inactive); in the assay with MCF7 it was 27 µM (inactive). Further, the GI50 in the assay on PC-3 is 0.586 µM (active); in the assay on SK-OV-3, > 100 µM (inactive); in the assay with HL-60, 5.6 µM (inactive); in the assay with SF-268 it was > 100 µM (inactive); with A549, > 36.5 µM (inactive); in the assay on K562, 0.364 µM (active). Also, the GI50 with Hs-578T is > 100 µM (inactive).

Regarding `CCOC(=O)N1CCC2(CC1)C[C@@](C(C)=O)(c1ccccc1)C(C)O2` (stereo partly specified), the GI50 in the assay with U-251, in the assay with Malme-3M, in the assay with NCI/ADR-RES, with OVCAR-8, in the assay with A498 and in the assay on IGROV-1 was > 100 µM (inactive) each time. Besides, the GI50 in the assay on NCI-H226, in the assay with ACHN, in the assay on DU-145, in the assay on SNB-19, with NCI-H460 and with MCF7 was > 100 µM (inactive) throughout. In addition, the GI50 was > 100 µM (inactive) with PC-3; 57.4 µM (inactive) in the assay on SK-OV-3; > 100 µM (inactive) in the assay with HL-60; > 100 µM (inactive) with SF-268; 51.3 µM (inactive) in the assay on A549; > 100 µM (inactive) in the assay with K562. Besides, in the assay on Hs-578T, the GI50 was > 100 µM (inactive).

`COC(=O)C(=O)C(C(=O)C(=O)Nc1ccccc1OC)c1nc2ccc([N+](=O)[O-])cc2nc1O` (stereo unspecified): the GI50 in the assay with U-251 is > 100 µM (inactive); in the assay on Malme-3M it was 83 µM (inactive); in the assay on NCI/ADR-RES, > 100 µM (inactive); with OVCAR-8, > 100 µM (inactive); in the assay on A498 it was > 100 µM (inactive); in the assay with IGROV-1, 54.8 µM (inactive). The GI50 is > 100 µM (inactive) in the assay on NCI-H226; > 100 µM (inactive) in the assay with SR; > 100 µM (inactive) in the assay with ACHN; 23.2 µM (inactive) in the assay with SNB-19; 58.2 µM (inactive) in the assay with NCI-H460; > 100 µM (inactive) in the assay with MCF7. In addition, the GI50 in the assay with PC-3, in the assay on SK-OV-3, with HL-60, in the assay on SF-268, in the assay on A549 and in the assay with K562 was > 100 µM (inactive) in each case. Moreover, the GI50 with Hs-578T was 78.2 µM (inactive).
